Results published in PMC6952399, “Structures of lipoprotein signal peptidase II from Staphylococcus aureus complexed with antibiotics globomycin and myxovirescin” (Nature Communications, 2020).

Tests used:
[1] = molecular target: T1, LspPae (lipoprotein signal peptidase II from Pseudomonas aeruginosa) (Pseudomonas aeruginosa, UniProt Q9HVM5); experiment: Coupled gel-shift peptidase assay with proICP substrate, LspPae WT; format: biochemical
T1 construct: made in house
T1 sequence (Q9HVM5 1-169): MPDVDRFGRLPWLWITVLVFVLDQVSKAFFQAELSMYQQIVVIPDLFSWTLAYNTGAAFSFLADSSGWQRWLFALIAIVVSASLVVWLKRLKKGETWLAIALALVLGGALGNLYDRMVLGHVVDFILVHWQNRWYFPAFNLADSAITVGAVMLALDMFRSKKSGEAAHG
Source text: (§1) The peptidase activity of LspMrs and P. aeruginosa LspA (LspPae) was quantified in a coupled gel-shift assay developed previously for LspPae[5]. The P. aeruginosa lipoprotein pre-proICP and the first two enzymes in the bacterial lipoprotein processing pathway Lgt and LspA were expressed and purified, as described. For FRET assays LspMrs was expressed and purified as described above and LspPae was expressed and purified as described in a published protocol.
Gel-shift activity assay. For time course assays, reactions were set up containing 12 µM pre-proICP, 250 µM DOPG (Avanti Polar Lipids, Inc.) and 1.2 µM Lgt in Buffer E (50 mM Tris/HCl pH 7.5, 150 mM NaCl, 1 mM DTT, 0.02%(w/v) LMNG). The assay mixtures were incubated at 37 °C and 200 rpm for 60 min to allow Lgt catalysed conversion of pre-proICP to the LspA substrate proICP. The LspA reaction was initiated by adding 0.5 µM LspA directly to the assay mixture. At timed intervals, 20 µL samples were removed and the reaction was stopped by adding 10 µL of 4x SDS loading buffer (62.5 mM Tris/HCl pH 6.8, 2.5%(w/v) SDS, 0.002%(w/v) bromophenol blue, 0.5 M β-mercaptoethanol, 10%(v/v) glycerol). To compare the activity of wild-type and mutant LspMrs, assays were allowed to proceed for 30 min before being stopped with SDS loading buffer. […] The reactions were initiated by adding LspA and allowed to proceed for 30 min. After the reaction was stopped with SDS buffer, 10 μL aliquots were loaded on precast Mini-PROTEAN® TGX^TM gels (Bio-Rad) and run with Tris/glycine buffer (25 mM Tris/HCl pH 8.0, 250 mM glycine, 0.1%(w/v) SDS). The gels were stained using InstantBlue™ (Expedeon) Coomassie based stain and were imaged using a Bio-Rad Gel-Doc imager (Supplementary Fig. 4). Band intensities of ICP were quantified using Image Lab. Dose-response plots to determine IC50 values were generated using Prism® 5 software from GraphPad.

[2] = molecular target: T2, LspMrs (lipoprotein signal peptidase II from methicillin-resistant Staphylococcus aureus) (Staphylococcus aureus, UniProt Q6GHN9); experiment: Coupled gel-shift peptidase assay with proICP substrate, LspMrs WT; format: biochemical; details: proICP substrate (12 µM pre-proICP), 0.5 µM enzyme, 30 min
T2 construct: MGSS-hexahistidine-SSGR-TEV site (ENLYFQ) (N, cleaved yes); made in house; host or cells: E. coli C43 (DE3)
Source text: as §1
Gel-shift activity assay. For time course assays, reactions were set up containing 12 µM pre-proICP, 250 µM DOPG (Avanti Polar Lipids, Inc.) and 1.2 µM Lgt in Buffer E (50 mM Tris/HCl pH 7.5, 150 mM NaCl, 1 mM DTT, 0.02%(w/v) LMNG). The assay mixtures were incubated at 37 °C and 200 rpm for 60 min to allow Lgt catalysed conversion of pre-proICP to the LspA substrate proICP. The LspA reaction was initiated by adding 0.5 µM LspA directly to the assay mixture. At timed intervals, 20 µL samples were removed and the reaction was stopped by adding 10 µL of 4x SDS loading buffer (62.5 mM Tris/HCl pH 6.8, 2.5%(w/v) SDS, 0.002%(w/v) bromophenol blue, 0.5 M β-mercaptoethanol, 10%(v/v) glycerol). To compare the activity of wild-type and mutant LspMrs, assays were allowed to proceed for 30 min before being stopped with SDS loading buffer. […] Band intensities of ICP were quantified using Image Lab. […]

LspMrs N52A = molecular target: T3, LspMrs N52A (Staphylococcus aureus, UniProt Q6GHN9, N52A); experiment: Gel-shift peptidase assay, LspMrs N52A mutant; format: biochemical, methicillin-resistant Staphylococcus aureus
T3 construct: MGSS-hexahistidine-SSGR-TEV site (ENLYFQ) (N, cleaved yes); made in house; host or cells: E. coli C43 (DE3)
Protocol: (§2) LspA mutant genes (N52A, N52Q, G54A, G54P, R110A, R110K, D118N, N133A, N133Q and D136N) were obtained by site-directed mutagenesis of the wild-type lspA construct in pETDuet. Mutagenesis was performed using the Q5® Site-Directed Mutagenesis Kit (New England Biolabs) and specific primers are listed in Supplementary Table 5. The correct mutations were confirmed by sequencing (Eurofins Genomics). Expression and purification of all LspMrs wild-type and mutants for enzyme assays were performed as described above with the following modifications: TALON® Metal Affinity Resin (Clontech) was used for IMAC purification and the detergent DDM was used for membrane solubilisation and protein purification.
as §1
(§3) Gel-shift activity assay. […] Band intensities of ICP were quantified using Image Lab. […]

LspMrs G54A = molecular target: T4, LspMrs G54A (Staphylococcus aureus, UniProt Q6GHN9, G54A); experiment: Gel-shift peptidase assay, LspMrs G54A mutant; format: biochemical, methicillin-resistant Staphylococcus aureus
T4 construct: MGSS-hexahistidine-SSGR-TEV site (ENLYFQ) (N, cleaved yes); made in house; host or cells: E. coli C43 (DE3)
Protocol: as §2, §1, §3

LspA from E. coli = tested on: LspA from E. coli; parameters: method as in earlier work; details: ref 7 (supplementary references); cited from earlier work

Row | Structure (SMILES) | IC50 [1] [µM] | remaining activity at 1000 µM ([1]; Log[Globomycin](M) -3, read-out: Normalized activity) [%] | remaining activity at 100 µM ([1]; Log[Globomycin](M) -4, read-out: Normalized activity) [%] | IC50 [2] [µM] | IC50 (LspMrs N52A) [µM] | IC50 (LspMrs G54A) [µM] | inhibition type (LspA from E. coli) | remaining activity at 50 µM ([1]; read-out: Normalized activity, Log[Myxovirescin](M) -4.30103) [%]
1 | CCCCCC[C@H]1OC(=O)CNC(=O)[C@H]([C@H](C)O)NC(=O)[C@H](CO)NC(=O)[C@H]([C@H](C)CC)NC(=O)[C@H](CC(C)C)N(C)C(=O)[C@@H]1C [globomycin] | 0.64 ± 0.16 | 94.2 | 94 | 171 | 1.23 ± 0.59 | 1.78 ± 0.25 | non-competitive | –
2 | CCCC1OC(=O)C(C)CC(C)CCCCC(=O)CCCC(CC)C=CC=C(COC)CCC(O)C(O)CC(O)CNC1=O (centres unmarked) [myxovirescin, myxovirescin A1] | 1.09 ± 0.34 | – | – | 0.16 | – | 0.57 ± 0.01 | – | 95.7
